According to ChEMBL document CHEMBL1131783, “Prodrugs of CL316243: a selective beta3-adrenergic receptor agonist for treating obesity and diabetes” (Bioorg Med Chem Lett, 1999):

Biological target: Beta-3 adrenergic receptor (Rattus norvegicus) (UniProt P26255)
Assay: Beta-3-adrenergic activity measured by percent response against free fatty acid (FFA) in rat plasma at a dosage of 0.1 mg/kg
Assay type: functional, organism-based
Set-up: dose 0.1 mg/kg

Chain of Beta-3 adrenergic receptor (Rattus norvegicus) (P26255 whole entry): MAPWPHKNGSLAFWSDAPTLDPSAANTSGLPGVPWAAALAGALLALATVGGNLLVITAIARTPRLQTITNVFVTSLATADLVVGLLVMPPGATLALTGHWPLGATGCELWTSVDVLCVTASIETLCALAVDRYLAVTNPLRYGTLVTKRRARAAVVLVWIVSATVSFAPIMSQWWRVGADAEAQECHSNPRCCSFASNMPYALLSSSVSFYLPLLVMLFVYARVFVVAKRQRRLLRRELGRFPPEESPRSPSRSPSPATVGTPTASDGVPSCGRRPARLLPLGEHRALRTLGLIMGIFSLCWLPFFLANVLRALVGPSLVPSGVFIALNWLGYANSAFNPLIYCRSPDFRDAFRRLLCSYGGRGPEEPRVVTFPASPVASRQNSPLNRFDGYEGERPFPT

| Response | Structure (SMILES) |
| --- | --- |
| 58% | C[C@H](Cc1ccc2c(c1)OC(C(=O)OC/C=C/c1ccccc1)(C(=O)OC/C=C/c1ccccc1)O2)NC[C@H](O)c1cccc(Cl)c1 |
| 83% | CCCCOC(=O)C1(C(=O)OCCCC)Oc2ccc(C[C@@H](C)NC[C@H](O)c3cccc(Cl)c3)cc2O1 |
| 63% | CCC(CC)OC(=O)C1(C(=O)OC(CC)CC)Oc2ccc(C[C@@H](C)NC[C@H](O)c3cccc(Cl)c3)cc2O1 |
| 120% | C[C@H](Cc1ccc2c(c1)OC(C(=O)OCCOCc1ccccc1)(C(=O)OCCOCc1ccccc1)O2)NC[C@H](O)c1cccc(Cl)c1 |
| 20% | C[C@H](Cc1ccc2c(c1)OC(C(=O)O)(C(=O)OCCOC(C)(C)C)O2)NC[C@H](O)c1cccc(Cl)c1 (stereo not given in full) |
| 88% | C[C@H](Cc1ccc2c(c1)OC(C(=O)OCCOc1cccc(Cl)c1)(C(=O)OCCOc1cccc(Cl)c1)O2)NC[C@H](O)c1cccc(Cl)c1 |
| 42% | COC(=O)C(C)OC(=O)C1(C(=O)OC(C)C(=O)OC)Oc2ccc(C[C@@H](C)NC[C@H](O)c3cccc(Cl)c3)cc2O1 (stereo not given in full) |
| 86% | CCC(CC)COC(=O)C1(C(=O)OCC(CC)CC)Oc2ccc(C[C@@H](C)NC[C@H](O)c3cccc(Cl)c3)cc2O1 |
| 61% | C[C@H](Cc1ccc2c(c1)OC(C(=O)OCCCc1ccccc1)(C(=O)OCCCc1ccccc1)O2)NC[C@H](O)c1cccc(Cl)c1 |
| 93% | C[C@H](Cc1ccc2c(c1)OC(C(=O)OCCCCCc1ccccc1)(C(=O)OCCCCCc1ccccc1)O2)NC[C@H](O)c1cccc(Cl)c1 |
| 9% | CCOC(=O)C(C)OC(=O)C1(C(=O)OC(C)C(=O)OCC)Oc2ccc(C[C@@H](C)NC[C@H](O)c3cccc(Cl)c3)cc2O1 (stereo not given in full) |
| 61% | C[C@H](Cc1ccc2c(c1)OC(C(=O)O)(C(=O)OCCC(C)(C)C)O2)NC[C@H](O)c1cccc(Cl)c1 (stereo not given in full) |
| 19% | C[C@H](Cc1ccc2c(c1)OC(C(=O)OCOC(=O)C1CCCCC1)(C(=O)OCOC(=O)C1CCCCC1)O2)NC[C@H](O)c1cccc(Cl)c1 |
| 83% | C[C@H](Cc1ccc2c(c1)OC(C(=O)OCCCOCc1ccccc1)(C(=O)OCCCOCc1ccccc1)O2)NC[C@H](O)c1cccc(Cl)c1 |
| 10% | CCC(=O)OCOC(=O)C1(C(=O)OCOC(=O)CC)Oc2ccc(C[C@@H](C)NC[C@H](O)c3cccc(Cl)c3)cc2O1 |
| 8% | COc1ccc(COC(=O)C2(C(=O)OCc3ccc(OC)cc3)Oc3ccc(C[C@@H](C)NC[C@H](O)c4cccc(Cl)c4)cc3O2)cc1 |
| 37% | CC(C)CCC(=O)OCOC(=O)C1(C(=O)OCOC(=O)CCC(C)C)Oc2ccc(C[C@@H](C)NC[C@H](O)c3cccc(Cl)c3)cc2O1 |
| 31% | C[C@H](Cc1ccc2c(c1)OC(C(=O)OCOC(=O)c1ccccc1)(C(=O)OCOC(=O)c1ccccc1)O2)NC[C@H](O)c1cccc(Cl)c1 |
| 2% | C[C@H](Cc1ccc2c(c1)OC(C(=O)OCCOc1ccccc1)(C(=O)OCCOc1ccccc1)O2)NC[C@H](O)c1cccc(Cl)c1 |
| 46% | C[C@H](Cc1ccc2c(c1)OC(C(=O)OCc1cccc(Cl)c1)(C(=O)OCc1cccc(Cl)c1)O2)NC[C@H](O)c1cccc(Cl)c1 |
| 71% | COCCOCCOC(=O)C1(C(=O)OCCOCCOC)Oc2ccc(C[C@@H](C)NC[C@H](O)c3cccc(Cl)c3)cc2O1 |
| 80% | C[C@H](Cc1ccc2c(c1)OC(C(=O)OCCc1ccsc1)(C(=O)OCCc1ccsc1)O2)NC[C@H](O)c1cccc(Cl)c1 |
| 26% | C[C@H](Cc1ccc2c(c1)OC(C(=O)OCCOc1ccc(Cl)cc1)(C(=O)OCCOc1ccc(Cl)cc1)O2)NC[C@H](O)c1cccc(Cl)c1 |
| 66% | CCCCCCOC(=O)C1(C(=O)O)Oc2ccc(C[C@@H](C)NC[C@H](O)c3cccc(Cl)c3)cc2O1 (stereo not given in full) |
| 30% | CCCOC(=O)COC(=O)C1(C(=O)OCC(=O)OCCC)Oc2ccc(C[C@@H](C)NC[C@H](O)c3cccc(Cl)c3)cc2O1 |
| 17% | CC(OC(=O)OC1CCCCC1)OC(=O)C1(C(=O)OC(C)OC(=O)OC2CCCCC2)Oc2ccc(C[C@@H](C)NC[C@H](O)c3cccc(Cl)c3)cc2O1 (stereo not given in full) |

Continued, compound first:

| Structure (SMILES) | Response |
| --- | --- |
| C[C@H](Cc1ccc2c(c1)OC(C(=O)O)(C(=O)OC[Si](C)(C)C)O2)NC[C@H](O)c1cccc(Cl)c1 (stereo not given in full) | 30% |
| C[C@H](Cc1ccc2c(c1)OC(C(=O)OCC[Si](C)(C)C)(C(=O)OCC[Si](C)(C)C)O2)NC[C@H](O)c1cccc(Cl)c1 | 60% |
| CCOCCOC(=O)C1(C(=O)O)Oc2ccc(C[C@@H](C)NC[C@H](O)c3cccc(Cl)c3)cc2O1 (stereo not given in full) | 73% |
| CCOC(=O)C1(C(=O)O)Oc2ccc(C[C@@H](C)NC[C@H](O)c3cccc(Cl)c3)cc2O1 (stereo not given in full) | 57% |
| CCOCCOC(=O)C1(C(=O)OCCOCC)Oc2ccc(C[C@@H](C)NC[C@H](O)c3cccc(Cl)c3)cc2O1 | 101% |
| C[C@H](Cc1ccc2c(c1)OC(C(=O)OCCOC(C)(C)C)(C(=O)OCCOC(C)(C)C)O2)NC[C@H](O)c1cccc(Cl)c1 | 14% |
| C[C@H](Cc1ccc2c(c1)OC(C(=O)OCC(=O)Oc1ccccc1)(C(=O)OCC(=O)Oc1ccccc1)O2)NC[C@H](O)c1cccc(Cl)c1 | 37% |
| CC(C)OC(=O)C1(C(=O)O)Oc2ccc(C[C@@H](C)NC[C@H](O)c3cccc(Cl)c3)cc2O1 (stereo not given in full) | 45% |
| CCCCOCCOC(=O)C1(C(=O)O)Oc2ccc(C[C@@H](C)NC[C@H](O)c3cccc(Cl)c3)cc2O1 (stereo not given in full) | 83% |
| C[C@H](Cc1ccc2c(c1)OC(C(=O)O)(C(=O)OCC1CCC1)O2)NC[C@H](O)c1cccc(Cl)c1 (stereo not given in full) | 39% |
| COCCOC(=O)C1(C(=O)O)Oc2ccc(C[C@@H](C)NC[C@H](O)c3cccc(Cl)c3)cc2O1 (stereo not given in full) | 85% |
| C[C@H](Cc1ccc2c(c1)OC(C(=O)OCCC1CC1)(C(=O)OCCC1CC1)O2)NC[C@H](O)c1cccc(Cl)c1 | 77% |
| C[C@H](Cc1ccc2c(c1)OC(C(=O)OC1CCCC1)(C(=O)OC1CCCC1)O2)NC[C@H](O)c1cccc(Cl)c1 | 118% |
| C[C@H](Cc1ccc2c(c1)OC(C(=O)OCC1CC1)(C(=O)OCC1CC1)O2)NC[C@H](O)c1cccc(Cl)c1 | 99% |
| C[C@H](Cc1ccc2c(c1)OC(C(=O)OCC1CCCCO1)(C(=O)OCC1CCCCO1)O2)NC[C@H](O)c1cccc(Cl)c1 (stereo not given in full) | 11% |
| CCC(CC)OC(=O)C1(C(=O)O)Oc2ccc(C[C@@H](C)NC[C@H](O)c3cccc(Cl)c3)cc2O1 (stereo not given in full) | 52% |
| CCCCCCCCOC(=O)C1(C(=O)O)Oc2ccc(C[C@@H](C)NC[C@H](O)c3cccc(Cl)c3)cc2O1 (stereo not given in full) | 45% |
| C[C@H](Cc1ccc2c(c1)OC(C(=O)O)(C(=O)OCC1CCCCC1)O2)NC[C@H](O)c1cccc(Cl)c1 (stereo not given in full) | 47% |
| CCC(CC)COC(=O)C1(C(=O)O)Oc2ccc(C[C@@H](C)NC[C@H](O)c3cccc(Cl)c3)cc2O1 (stereo not given in full) | 56% |
| C[C@H](Cc1ccc2c(c1)OC(C(=O)O)(C(=O)OCC1CC1)O2)NC[C@H](O)c1cccc(Cl)c1 (stereo not given in full) | 37% |
| CC(C)CCOC(=O)C1(C(=O)O)Oc2ccc(C[C@@H](C)NC[C@H](O)c3cccc(Cl)c3)cc2O1 (stereo not given in full) | 42% |
| C[C@H](Cc1ccc2c(c1)OC(C(=O)OCC(C)(C)CO)(C(=O)OCC(C)(C)CO)O2)NC[C@H](O)c1cccc(Cl)c1 | 78% |
| CC(OC(=O)C(C)(C)C)OC(=O)C1(C(=O)OC(C)OC(=O)C(C)(C)C)Oc2ccc(C[C@@H](C)NC[C@H](O)c3cccc(Cl)c3)cc2O1 (stereo not given in full) | 23% |
| CC(C)C(=O)OCOC(=O)C1(C(=O)OCOC(=O)C(C)C)Oc2ccc(C[C@@H](C)NC[C@H](O)c3cccc(Cl)c3)cc2O1 | 26% |
